Assay results from US10538555B2, “Macrocyclic inhibitors of the PD-1/PD-L1 and CD80(B7-1)/PD-L1 protein/protein interactions” (BRISTOL-MYERS SQUIBB COMPANY, priority 2014, dated 2020).
*1 amine or outer side, *2 acyl side, *3 side chain or, on linkers, in order; H or OH if unused. Where a SMILES comes first, the peptide text is derived from it. Bridges are numbered along the chain shown (N, C = ends). [ ]: non-standard residue; d: D form. ξ: configuration not given here. Trp(1-CH2COOH) = N[C@@H](Cc1cn(CC(=O)O)c2ccccc12)C(=O)O; Phe(3,4,5-F3) = N[C@@H](Cc1cc(F)c(F)c(F)c1)C(=O)O; Phe(3,4-F2) = N[C@@H](Cc1ccc(F)c(F)c1)C(=O)O; Phe(4-F) = N[C@@H](Cc1ccc(F)cc1)C(=O)O; d(cisHyp) = O=C(O)[C@H]1C[C@@H](O)CN1; Hyp = O=C(O)[C@@H]1C[C@@H](O)CN1; NMeF = CN[C@@H](Cc1ccccc1)C(=O)O; X1 = O=C([C@H]1COCCN1[*:1])[*:2]; dHyp = O=C(O)[C@H]1C[C@H](O)CN1; NMehSer = CN[C@@H](CCO)C(=O)O; NMeNle = CCCC[C@H](NC)C(=O)O; NMeV = CN[C@H](C(=O)O)C(C)C; Pip = O=C(O)[C@@H]1CCCCN1; dPip = O=C(O)[C@H]1CCCCN1; hSer = N[C@@H](CCO)C(=O)O; NMeA = CN[C@@H](C)C(=O)O; Orn = NCCC[C@H](N)C(=O)O; dNMeA = CN[C@H](C)C(=O)O; Dab = NCC[C@H](N)C(=O)O; Dap = NC[C@H](N)C(=O)O; ξC = NC(CS)C(=O)O

biological target: T1, Human PD-L1/PD-1 (Homo sapiens, UniProt Q9NZQ7); experiment: HTRF Human PD-L1/PD-1 binding assay (PD-1-Ig/PD-L1-His); settings: PD-L1-His 10 nM, PD-1-Ig 20 nM; class symbol; read-out: HTRF Human PD-L1/PD-1 Binding Assay IC50 Range
T1 construct: TVMV protease cleavage site (C); made in house; host or cells: HEK293T cells
Procedure, shortened: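 Competition of macrocyclic peptides for PD-1/PD-L1 binding measured by HTRF in dPBS containing 0.1% BSA and 0.05% Tween-20. Compound and PD-L1-His (10 nM final) incubated 15 min before PD-1-Ig (20 nM final) and a further 15 min.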

T1 sequence (Q9NZQ7 with tags, fused parts or gaps): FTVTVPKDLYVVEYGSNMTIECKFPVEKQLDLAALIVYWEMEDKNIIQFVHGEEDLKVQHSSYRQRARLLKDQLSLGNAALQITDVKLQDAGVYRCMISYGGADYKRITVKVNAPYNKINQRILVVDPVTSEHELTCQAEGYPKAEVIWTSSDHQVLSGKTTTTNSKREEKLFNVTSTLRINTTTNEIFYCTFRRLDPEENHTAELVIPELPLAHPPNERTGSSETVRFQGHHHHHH

| IC50 | SMILES |
| --- | --- |
| 1 to 9.9 nM | CCCC[C@H]1C(=O)N2C[C@@H](O)C[C@@H]2C(=O)N[C@@H](CC(=O)O)C(=O)N[C@@H](C(C)C)C(=O)N(C)[C@@H](Cc2ccccc2)C(=O)N[C@@H](Cc2ccc(O)cc2)C(=O)N2C[C@@H](O)C[C@@H]2C(=O)N[C@@H](Cc2c[nH]c3ccccc23)C(=O)N[C@@H](Cc2ccc(O)cc2)C(=O)N[C@@H](CC(C)C)C(=O)N[C@H](C(=O)NCC(N)=O)CSCC(=O)N[C@@H](Cc2ccc(F)c(F)c2)C(=O)N(C)[C@@H](Cc2ccccc2)C(=O)N1C [Example 9227] ({CH2CO}-[Phe(3,4-F2)][NMeF][NMeNle][dHyp]DV[NMeF]Y[dHyp]WYLCG-NH2; thioether N-13) |
| 10 to 99.9 nM | CCCC[C@H]1C(=O)N2C[C@H](O)C[C@@H]2C(=O)N[C@@H](CC(=O)O)C(=O)N[C@@H](C(C)C)C(=O)N(C)[C@@H](Cc2ccccc2)C(=O)N[C@@H](CCC(=O)O)C(=O)N2C[C@H](O)C[C@@H]2C(=O)N[C@@H](Cc2c[nH]c3ccccc23)C(=O)N[C@@H](Cc2ccc(O)cc2)C(=O)N[C@@H](CCCN)C(=O)N[C@H](C(=O)NCC(N)=O)CSCC(=O)N[C@@H](Cc2cc(F)c(F)c(F)c2)C(=O)N(C)[C@@H](Cc2ccccc2)C(=O)N1C [Example 9332] ({CH2CO}-[Phe(3,4,5-F3)][NMeF][NMeNle][d(cisHyp)]DV[NMeF]E[d(cisHyp)]WY[Orn]CG-NH2; thioether N-13) |
| 1 to 9.9 nM | COCC[C@H]1C(=O)N2C[C@@H](O)C[C@@H]2C(=O)N[C@@H](CC(=O)O)C(=O)N[C@@H](C(C)C)C(=O)N(C)[C@@H](Cc2ccccc2)C(=O)N[C@@H](Cc2ccc(OC)cc2)C(=O)N2C[C@@H](O)C[C@@H]2C(=O)N[C@@H](Cc2c[nH]c3ccccc23)C(=O)N[C@@H](Cc2ccc(O)cc2)C(=O)N[C@@H](CC(C)C)C(=O)N[C@H](C(=O)NCC(N)=O)CSCC(=O)N[C@@H](Cc2ccc(F)c(F)c2)C(=O)N(C)[C@@H](Cc2ccccc2)C(=O)N1C [Example 9235] ({CH2CO}-[Phe(3,4-F2)][NMeF][NMehSer](Me)[dHyp]DV[NMeF]Y(Me)[dHyp]WYLCG-NH2; thioether N-13) |
| 1 to 9.9 nM | CCCC[C@H]1C(=O)N2CCC[C@@H]2C(=O)N[C@@H](CC(=O)O)C(=O)N[C@@H](C(C)C)C(=O)N(C)[C@@H](Cc2ccccc2)C(=O)N[C@@H](Cc2ccc(O)cc2)C(=O)N2CCC[C@@H]2C(=O)N[C@@H](Cc2c[nH]c3ccccc23)C(=O)N[C@@H](Cc2ccc(O)cc2)C(=O)N[C@@H](CCO)C(=O)N[C@H](C(=O)NCC(N)=O)CSCC(=O)N[C@@H](Cc2cc(F)c(F)c(F)c2)C(=O)N(C)[C@@H](Cc2ccccc2)C(=O)N1C [Example 10095] ({CH2CO}-[Phe(3,4,5-F3)][NMeF][NMeNle][dP]DV[NMeF]Y[dP]WY[hSer]CG-NH2; thioether N-13) |
| 1000 to 10000 nM | CCCC[C@H]1C(=O)N2CCC[C@@H]2C(=O)N[C@@H](CC(=O)O)C(=O)N[C@@H](C(C)C)C(=O)N(C)[C@@H](C(C)C)C(=O)N[C@@H](Cc2ccc(O)cc2)C(=O)N2CCCC[C@@H]2C(=O)N[C@@H](Cc2c[nH]c3ccccc23)C(=O)N[C@@H](Cc2ccc(O)cc2)C(=O)N[C@@H](CCCN)C(=O)N[C@H](C(=O)NCC(N)=O)CSCC(=O)N[C@@H](Cc2ccc(F)cc2)C(=O)N(C)[C@@H](Cc2ccccc2)C(=O)N1C [Example 9244] ({CH2CO}-[Phe(4-F)][NMeF][NMeNle][dP]DV[NMeV]Y[dPip]WY[Orn]CG-NH2; thioether N-13) |

The next lines start with the molecule.

| SMILES | IC50 |
| --- | --- |
| CCCC[C@H]1C(=O)N(C)[C@@H](CCCC)C(=O)N[C@@H](CCCN)C(=O)N[C@H](C(=O)NCC(N)=O)CSCC(=O)N[C@@H](Cc2ccc(OC)cc2)C(=O)N(C)[C@@H](C)C(=O)N[C@@H](CCN)C(=O)N2CCC[C@H]2C(=O)N[C@@H](CN)C(=O)N[C@@H](CCC(=O)O)C(=O)N2C[C@H](O)C[C@H]2C(=O)N[C@@H](Cc2c[nH]c3ccccc23)C(=O)N[C@@H](CC(=O)O)C(=O)N[C@@H](Cc2c[nH]c3ccccc23)C(=O)N1C [Example 7105] ({CH2CO}-Y(Me)[NMeA][Dab]P[Dap]E[Hyp]WDW[NMeNle][NMeNle][Orn]CG-NH2; thioether N-14) | 10 to 99.9 nM |
| CCCC[C@H]1C(=O)N(C)CC(=O)N[C@@H](CC(=O)O)C(=O)NC(C(C)c2ccccc2)C(=O)N(C)[C@@H](Cc2ccccc2)C(=O)N[C@@H](Cc2ccc(O)cc2)C(=O)N(C)CC(=O)N[C@@H](Cc2c[nH]c3ccccc23)C(=O)N[C@@H](Cc2ccc(O)cc2)C(=O)N[C@@H](CC(C)C)C(=O)N[C@H](C(=O)NCC(N)=O)CSCC(=O)N[C@@H](Cc2ccccc2)C(=O)N(C)[C@@H](Cc2ccccc2)C(=O)N1C (single isomer, unassigned) [Example 3230-B] | 100 to 990 nM |
| CCCC[C@H]1C(=O)N(C)[C@@H](CCCC)C(=O)N[C@@H](CCC(=O)O)C(=O)N[C@H](C(=O)NCC(N)=O)CSCC(=O)N[C@@H](Cc2ccc(OC)cc2)C(=O)N(C)[C@@H](C)C(=O)N[C@@H](CC(=O)O)C(=O)N2CCC[C@H]2C(=O)N[C@@H](CN)C(=O)N[C@@H](CCC(=O)O)C(=O)N2C[C@H](O)C[C@H]2C(=O)N[C@@H](Cc2c[nH]c3ccccc23)C(=O)N[C@@H](CCN)C(=O)N[C@@H](Cc2c[nH]c3ccccc23)C(=O)N1C [Example 7113] ({CH2CO}-Y(Me)[NMeA]DP[Dap]E[Hyp]W[Dab]W[NMeNle][NMeNle]ECG-NH2; thioether N-14) | 1 to 9.9 nM |
| CCCC[C@H]1C(=O)N(C)[C@@H](CCCC)C(=O)N[C@@H](CO)C(=O)N[C@H](C(=O)NCC(N)=O)CSCC(=O)N[C@@H](Cc2ccc(OC)cc2)C(=O)N(C)[C@@H](C)C(=O)N[C@@H](CC(N)=O)C(=O)N2CCC[C@H]2C(=O)N[C@@H](Cc2c[nH]cn2)C(=O)N[C@@H](CCC(N)=O)C(=O)N2C[C@H](O)C[C@H]2C(=O)N[C@@H](Cc2c[nH]c3ccccc23)C(=O)N[C@@H](CO)C(=O)N[C@@H](Cc2c[nH]c3ccccc23)C(=O)N1C [Example 7137] ({CH2CO}-Y(Me)[NMeA]NPHQ[Hyp]WSW[NMeNle][NMeNle]SCG-NH2; thioether N-14) | 1 to 9.9 nM |
| CCCC[C@H]1C(=O)N(C)[C@@H](CCCC)C(=O)N[C@@H](CC(C)C)C(=O)N[C@H](C(=O)NCC(N)=O)CSCC(=O)N[C@@H](Cc2ccc(O)cc2)C(=O)N2CCCC[C@H]2C(=O)N[C@@H](CC(N)=O)C(=O)N2CCC[C@H]2C(=O)N[C@@H](CN)C(=O)N[C@@H](CC(C)C)C(=O)N2C[C@H](O)C[C@H]2C(=O)N[C@@H](Cc2c[nH]c3ccccc23)C(=O)N[C@@H](CCN)C(=O)N[C@@H](Cc2cn(CC(=O)O)c3ccccc23)C(=O)N1C [Example 1297] ({CH2CO}-Y[Pip]NP[Dap]L[Hyp]W[Dab][Trp(1-CH2COOH)][NMeNle][NMeNle]LCG-NH2; thioether N-14) | 1 to 9.9 nM |
| CCCC[C@H]1C(=O)N(C)[C@@H](CCCC)C(=O)N[C@@H](CCC(=O)O)C(=O)NC(C(=O)NCC(N)=O)CSCC(=O)N[C@@H](Cc2ccc(O)cc2)C(=O)N(C)[C@@H](C)C(=O)N[C@@H](CC(N)=O)C(=O)N2CCC[C@H]2C(=O)N[C@@H](CC(N)=O)C(=O)N[C@@H](CC(C)C)C(=O)N2C[C@H](O)C[C@H]2C(=O)N[C@@H](Cc2c[nH]c3ccccc23)C(=O)N[C@@H](CC(=O)O)C(=O)N[C@@H](Cc2c[nH]c3ccccc23)C(=O)N1C (stereo partly drawn) [Example 9173] ({CH2CO}-Y[NMeA]NPNL[Hyp]WDW[NMeNle][NMeNle]E[ξC]G-NH2; thioether N-14) | 100 to 990 nM |
| CCCC[C@H]1C(=O)N2CCCC[C@@H]2C(=O)N[C@@H](CC(=O)O)C(=O)N[C@@H](C(C)C)C(=O)N(C)[C@@H](Cc2ccccc2)C(=O)N[C@@H](CCC(=O)O)C(=O)N2CCOC[C@@H]2C(=O)N[C@@H](Cc2c[nH]c3ccccc23)C(=O)N[C@@H](Cc2ccc(O)cc2)C(=O)N[C@@H](CCCN)C(=O)N[C@H](C(=O)NCC(N)=O)CSCC(=O)N[C@@H](Cc2cc(F)c(F)c(F)c2)C(=O)N(C)[C@@H](Cc2ccccc2)C(=O)N1C [Example 3641] ({CH2CO}-[Phe(3,4,5-F3)][NMeF][NMeNle][dPip]DV[NMeF]E[X1]WY[Orn]CG-NH2; thioether N-13) | 10 to 99.9 nM |
| CCCC[C@H]1C(=O)N(C)[C@@H](CCCC)C(=O)N[C@@H](CC(C)C)C(=O)N[C@H](C(=O)NCC(N)=O)CSCC(=O)N[C@@H](Cc2ccc(O)cc2)C(=O)N(C)[C@@H](C)C(=O)N[C@@H](CC(N)=O)C(=O)N2CCC[C@H]2C(=O)N[C@@H](Cc2c[nH]cn2)C(=O)N[C@@H](CCCCNC(C)=O)C(=O)N2C[C@H](O)C[C@H]2C(=O)N[C@@H](Cc2c[nH]c3ccccc23)C(=O)N[C@@H](CCN)C(=O)N[C@@H](Cc2c[nH]c3ccccc23)C(=O)N1C [Example 5228] ({CH2CO}-Y[NMeA]NPHK(Ac)[Hyp]W[Dab]W[NMeNle][NMeNle]LCG-NH2; thioether N-14) | 1 to 9.9 nM |
| CCCC[C@H]1C(=O)N(C)[C@@H](CCCC)C(=O)N[C@@H](CCCN)C(=O)NC(C(=O)NCC(N)=O)CSCC(=O)N[C@@H](Cc2ccc(O)cc2)C(=O)N(C)[C@@H](C)C(=O)N[C@@H](CC(N)=O)C(=O)N2CCC[C@H]2C(=O)N[C@@H](CC(N)=O)C(=O)N[C@@H](CC(C)C)C(=O)N2CCC[C@H]2C(=O)N[C@@H](Cc2c[nH]c3ccccc23)C(=O)N[C@@H](CO)C(=O)N[C@@H](Cc2c[nH]c3ccccc23)C(=O)N1C (stereo partly drawn) [Example 9155] ({CH2CO}-Y[NMeA]NPNLPWSW[NMeNle][NMeNle][Orn][ξC]G-NH2; thioether N-14) | 1 to 9.9 nM |

same assay, conditions: PD-L1-His 10 nM, PD-1-Ig 20 nM; read-out: HTRF Human PD-L1/PD-1 Binding Assay IC50

| IC50 | SMILES |
| --- | --- |
| 4.5 nM | CC(C)[C@@H]1NC(=O)[C@H](CCC(N)=O)NC(=O)[C@@H](C)N(C)C(=O)[C@H](C)N(C)C(=O)[C@H](Cc2ccccc2)N(C)C(=O)[C@H](Cc2cc(F)c(F)c(F)c2)NC(=O)CSC[C@@H](C(=O)NCC(N)=O)NC(=O)[C@H](CCCN)NC(=O)[C@H](Cc2ccc(O)cc2)NC(=O)[C@H](Cc2c[nH]c3ccccc23)NC(=O)[C@@H](C)N(C)C(=O)[C@H](Cc2ccc(O)cc2)NC(=O)[C@H](Cc2ccccc2)N(C)C1=O [Example 9196] ({CH2CO}-[Phe(3,4,5-F3)][NMeF][NMeA][dNMeA]QV[NMeF]Y[dNMeA]WY[Orn]CG-NH2; thioether N-13) |
